Laboratory results reported in ChEMBL document CHEMBL3885881, “DrugMatrix”.

Species: Rattus norvegicus
Experiment: DrugMatrix - Regimen: Daily Repeat
Format: toxicity, organism-based, Sprague-Dawley
Design: regimen Daily Repeat, gender Male, age 6-8 weeks
Conditions: in vivo, po, route oral GAVAGE, […]; for ABSOLUTE BASOPHIL / ABSOLUTE EOSINOPHIL / ABSOLUTE LYMPHOCYTE / ABSOLUTE MONOCYTE / ABSOLUTE SEGMENTED NEUTROPHIL / BASOPHIL / EOSINOPHIL / ERYTHROCYTE COUNT / HEMATOCRIT / HEMOGLOBIN / LEUKOCYTE COUNT / LYMPHOCYTE / MEAN CORPUSCULAR HEMOGLOBIN / MEAN CORPUSCULAR HEMOGLOBIN CONCENTRATION / MEAN CORPUSCULAR VOLUME / MONOCYTE / NEUTROPHIL / NUCLEATED RED BLOOD CELLS / PLATELET COUNT: tissue Blood; for ALANINE AMINOTRANSFERASE / ALBUMIN / ALKALINE PHOSPHATASE / ASPARTATE AMINOTRANSFERASE / BLOOD UREA NITROGEN / CARBON DIOXIDE / CHLORIDE / CHOLESTEROL / CREATINE PHOSPHOKINASE / CREATININE / GLUCOSE / LACTATE DEHYDROGENASE / LIPASE / POTASSIUM / SODIUM / TOTAL BILIRUBIN / TOTAL PROTEIN / URIC ACID: tissue Plasma
[1] = 300 mg/kg, 72 h, dose level M1, time 3 day
[2] = 300 mg/kg, 120 h, dose level M1, time 5 day
[3] = 1500 mg/kg, 72 h, dose level High, time 3 day
[4] = 1500 mg/kg, 120 h, dose level High, time 5 day

CCc1ccc(CCOc2ccc(CC3SC(=O)NC3=O)cc2)nc1 (stereo not drawn) [PIOGLITAZONE]
ABSOLUTE BASOPHIL [1]: 0 CELLS/uL
ABSOLUTE EOSINOPHIL [1]: 0 CELLS/uL
ABSOLUTE LYMPHOCYTE [1]: 15172.67 CELLS/uL
ABSOLUTE MONOCYTE [1]: 43 CELLS/uL
ABSOLUTE SEGMENTED NEUTROPHIL [1]: 1184.33 CELLS/uL
BASOPHIL [1]: 0%
EOSINOPHIL [1]: 0%
ERYTHROCYTE COUNT [1]: 4.93 x10E6/uL
HEMATOCRIT [1]: 32.73%
HEMOGLOBIN [1]: 13 G/DL
LEUKOCYTE COUNT [1]: 16.4 x10E3/uL
LYMPHOCYTE [1]: 92.33%
MEAN CORPUSCULAR HEMOGLOBIN [1]: 26.4 pg
MEAN CORPUSCULAR HEMOGLOBIN CONCENTRATION [1]: 39.73 G/DL
MEAN CORPUSCULAR VOLUME [1]: 66.4 fL
MONOCYTE [1]: 0.33%
NEUTROPHIL [1]: 7.33%
NUCLEATED RED BLOOD CELLS [1]: 0.67 /100WBC
PLATELET COUNT [1]: 1282 x10E3/uL
ALANINE AMINOTRANSFERASE [1]: 81.33 u/L
ALBUMIN [1]: 4.1 G/DL
ALKALINE PHOSPHATASE [1]: 504.67 u/L
ASPARTATE AMINOTRANSFERASE [1]: 92 u/L
BLOOD UREA NITROGEN [1]: 13.67 mg/dL
CARBON DIOXIDE [1]: 34 mmol/L
CHLORIDE [1]: 103.33 MEQ/L
CHOLESTEROL [1]: 58.33 mg/dL
CREATINE PHOSPHOKINASE [1]: 248.33 u/L
CREATININE [1]: 0.22 mg/dL
GLUCOSE [1]: 137 mg/dL
LACTATE DEHYDROGENASE [1]: 98 u/L
LIPASE [1]: 10.67 u/L
POTASSIUM [1]: 6.5 MEQ/L
SODIUM [1]: 143.9 MEQ/L
TOTAL BILIRUBIN [1]: 0.1 mg/dL
TOTAL PROTEIN [1]: 5.47 G/DL
URIC ACID [1]: 1.27 mg/dL
ABSOLUTE BASOPHIL [2]: 0 CELLS/uL
ABSOLUTE EOSINOPHIL [2]: 0 CELLS/uL
ABSOLUTE LYMPHOCYTE [2]: 12765 CELLS/uL
ABSOLUTE MONOCYTE [2]: 138.67 CELLS/uL
ABSOLUTE SEGMENTED NEUTROPHIL [2]: 829.67 CELLS/uL
BASOPHIL [2]: 0%
EOSINOPHIL [2]: 0%
ERYTHROCYTE COUNT [2]: 4.76 x10E6/uL
HEMATOCRIT [2]: 31.27%
HEMOGLOBIN [2]: 12.9 G/DL
LEUKOCYTE COUNT [2]: 13.73 x10E3/uL
LYMPHOCYTE [2]: 93%
MEAN CORPUSCULAR HEMOGLOBIN [2]: 27.17 pg
MEAN CORPUSCULAR HEMOGLOBIN CONCENTRATION [2]: 41.37 G/DL
MEAN CORPUSCULAR VOLUME [2]: 65.73 fL
MONOCYTE [2]: 1%
NEUTROPHIL [2]: 6%
NUCLEATED RED BLOOD CELLS [2]: 0.67 /100WBC
PLATELET COUNT [2]: 1095.33 x10E3/uL
ALANINE AMINOTRANSFERASE [2]: 71.67 u/L
ALBUMIN [2]: 4.07 G/DL
ALKALINE PHOSPHATASE [2]: 406.67 u/L
ASPARTATE AMINOTRANSFERASE [2]: 102.33 u/L
BLOOD UREA NITROGEN [2]: 14.33 mg/dL
CARBON DIOXIDE [2]: 33.33 mmol/L
CHLORIDE [2]: 101.33 MEQ/L
CHOLESTEROL [2]: 56.67 mg/dL
CREATINE PHOSPHOKINASE [2]: 223.67 u/L
CREATININE [2]: 0.16 mg/dL
GLUCOSE [2]: 150.33 mg/dL
LACTATE DEHYDROGENASE [2]: 224.33 u/L
LIPASE [2]: 10.33 u/L
POTASSIUM [2]: 5.99 MEQ/L
SODIUM [2]: 143.9 MEQ/L
TOTAL BILIRUBIN [2]: 0.1 mg/dL
TOTAL PROTEIN [2]: 5.73 G/DL
URIC ACID [2]: 1.43 mg/dL
ABSOLUTE BASOPHIL [3]: 0 CELLS/uL
ABSOLUTE EOSINOPHIL [3]: 0 CELLS/uL
ABSOLUTE LYMPHOCYTE [3]: 8411 CELLS/uL
ABSOLUTE MONOCYTE [3]: 92.33 CELLS/uL
ABSOLUTE SEGMENTED NEUTROPHIL [3]: 1396.67 CELLS/uL
BASOPHIL [3]: 0%
EOSINOPHIL [3]: 0%
ERYTHROCYTE COUNT [3]: 4.68 x10E6/uL
HEMATOCRIT [3]: 29.23%
HEMOGLOBIN [3]: 11.2 G/DL
LEUKOCYTE COUNT [3]: 9.9 x10E3/uL
LYMPHOCYTE [3]: 84.33%
MEAN CORPUSCULAR HEMOGLOBIN [3]: 23.93 pg
MEAN CORPUSCULAR HEMOGLOBIN CONCENTRATION [3]: 38.27 G/DL
MEAN CORPUSCULAR VOLUME [3]: 62.47 fL
MONOCYTE [3]: 1%
NEUTROPHIL [3]: 14.67%
NUCLEATED RED BLOOD CELLS [3]: 0.33 /100WBC
PLATELET COUNT [3]: 1023.33 x10E3/uL
ALANINE AMINOTRANSFERASE [3]: 85.67 u/L
ALBUMIN [3]: 3.97 G/DL
ALKALINE PHOSPHATASE [3]: 537.33 u/L
ASPARTATE AMINOTRANSFERASE [3]: 97.67 u/L
BLOOD UREA NITROGEN [3]: 12.33 mg/dL
CARBON DIOXIDE [3]: 34.67 mmol/L
CHLORIDE [3]: 101 MEQ/L
CHOLESTEROL [3]: 67 mg/dL
CREATINE PHOSPHOKINASE [3]: 311.67 u/L
CREATININE [3]: 0.36 mg/dL
GLUCOSE [3]: 131 mg/dL
LACTATE DEHYDROGENASE [3]: 114.33 u/L
LIPASE [3]: 9.67 u/L
POTASSIUM [3]: 5.48 MEQ/L
SODIUM [3]: 145 MEQ/L
TOTAL BILIRUBIN [3]: 0.1 mg/dL
TOTAL PROTEIN [3]: 5.57 G/DL
URIC ACID [3]: 0.67 mg/dL
ABSOLUTE BASOPHIL [4]: 0 CELLS/uL
ABSOLUTE EOSINOPHIL [4]: 36.67 CELLS/uL
ABSOLUTE LYMPHOCYTE [4]: 8937 CELLS/uL
ABSOLUTE MONOCYTE [4]: 131.33 CELLS/uL
ABSOLUTE SEGMENTED NEUTROPHIL [4]: 1128.33 CELLS/uL
BASOPHIL [4]: 0%
EOSINOPHIL [4]: 0.33%
ERYTHROCYTE COUNT [4]: 4.76 x10E6/uL
HEMATOCRIT [4]: 30.03%
HEMOGLOBIN [4]: 11.5 G/DL
LEUKOCYTE COUNT [4]: 10.23 x10E3/uL
LYMPHOCYTE [4]: 87.33%
MEAN CORPUSCULAR HEMOGLOBIN [4]: 24.2 pg
MEAN CORPUSCULAR HEMOGLOBIN CONCENTRATION [4]: 38.3 G/DL
MEAN CORPUSCULAR VOLUME [4]: 63.17 fL
MONOCYTE [4]: 1.33%
NEUTROPHIL [4]: 11%
NUCLEATED RED BLOOD CELLS [4]: 0 /100WBC
PLATELET COUNT [4]: 962 x10E3/uL
ALANINE AMINOTRANSFERASE [4]: 56.33 u/L
ALBUMIN [4]: 3.93 G/DL
ALKALINE PHOSPHATASE [4]: 338.67 u/L
ASPARTATE AMINOTRANSFERASE [4]: 80 u/L
BLOOD UREA NITROGEN [4]: 13.67 mg/dL
CARBON DIOXIDE [4]: 33.67 mmol/L
CHLORIDE [4]: 101 MEQ/L
CHOLESTEROL [4]: 62.67 mg/dL
CREATINE PHOSPHOKINASE [4]: 366 u/L
CREATININE [4]: 0.36 mg/dL
GLUCOSE [4]: 140.67 mg/dL
LACTATE DEHYDROGENASE [4]: 107.33 u/L
LIPASE [4]: 8.67 u/L
POTASSIUM [4]: 5.6 MEQ/L
SODIUM [4]: 144.53 MEQ/L
TOTAL BILIRUBIN [4]: 0.17 mg/dL
TOTAL PROTEIN [4]: 5.47 G/DL
URIC ACID [4]: 0.63 mg/dL
